Test results published in publication PMC11802874, “The hypolipidemic effect of MI-883, the combined CAR agonist/ PXR antagonist, in diet-induced hypercholesterolemia model” (Nature Communications, 2025).

Assay: Pharmacokinetic study after single dose in C57BL/6N mice
Type: in vivo, mouse
Protocol: Pharmacokinetic study of MI-883 in C57BL/6N mice (9–10 weeks old, body weight 20.8 to 24.5 g and average body weight across all groups 22.7 g, SD = 1.1 g) were performed following peroral (p.o.) and intraperitoneal (i.p.) administrations. […] There was also a control group of 4 animals per route. The levels of the parent compound MI-883 were determined by LC-MS/MS in the blood plasma, brain, kidney, liver, muscle (Leg triceps), bile, small intestine, colon, and adipose tissues over time after a single dose of 10 mg/kg. Mice were injected i.p. with 2,2,2-tribromoethanol at a dose of 150 mg/kg prior to drawing the blood. Blood collection was performed from the orbital sinus in BD microtainers tubes containing K2EDTA. Animals were sacrificed by cervical dislocation after the blood samples collection. After this, samples of brain, kidney, liver, muscle (Leg triceps), small intestine, colon, and adipose tissue were collected. Bile samples were taken from the gallbladder of mice. Urine and feces samples were collected using metabolic cages over the course of 1440 min (24 h) after compound administration. All samples were immediately processed, flash-frozen, and stored at –70 °C until subsequent analysis. Detection of the presence of potential metabolites (2-chloro-5-((4-(2-(4-chlorophenyl)-7-fluoroimidazo[1,2-a]pyridin-3-yl)-1H-1,2,3-triazol-1-yl)methyl)-N-methylbenzamide or 2-(4-chlorophenyl)-7-fluoro-3-(1H-1,2,3-triazol-4-yl)imidazo[1,2-a]pyridine) in plasma and tissues was performed. MI-883 was applied in 5%DMSO – 5%PEG300 – 90%corn oil formulation with a final concentration of the compound, 2 mg/ml. Animal treatment and sample preparation were conducted by the Animal Laboratory personnel at Enamine/Bienta.
Plasma samples (50 μl) were mixed with 200 μl of IS400 solution. After mixing by pipetting and centrifuging for 4 min at 6000 rpm, 2 μl of each supernatant was injected into the LC-MS/MS system. Solution of compound IS-19851 (400 ng/ml in acetonitrile-methanol mixture 1:1, v/v) was used as internal standard (IS400) for quantification of MI-883 in blood plasma, liver, kidney, muscle (Leg triceps), small intestine, and colon samples. Liver, kidney, muscle (Leg triceps), colon, and small intestine samples (weight 100 mg ±1 mg) were disintegrated in 500 μl of IS400 using zirconium oxide beads (120 mg ± 5 mg) in The Bullet Blender® homogenizer for 1–3 min at speed 8–12. After this, the samples were centrifuged for 3 min at 14,000 rpm, and 1 μl of each supernatant was injected into the LC-MS/MS system.
Brain and adipose tissue samples (weight 100 mg ± 1 mg) were dispersed in 500 μl of IS400(80) using zirconium oxide beads (120 mg ± 5 mg) in The Bullet Blender® homogenizer for 30 s at speed 8. After this, the samples were centrifuged for 4 min at 14,000 rpm, and 1 μl of each supernatant was injected into the LC-MS/MS system. Solution of compound IS-19851 (400 ng/ml in water-acetonitrile-methanol mixture, 2:4:4, v/v/v) was used as internal standard (IS400(80)) for quantification of MI-883 in the brain, adipose tissue, urine, and bile samples. Urine (cumulative) and bile samples were mixed with IS400(80) solution (1:20, v/v). After mixing by pipetting and centrifuging for 4 min at 6000 rpm, 0.5 μl of each supernatant was injected into the LC-MS/MS system. Cumulative feces samples (114 mg–249 mg) were transferred to BMT-20-S tubes with 4 stainless steel balls, mixed with 20 volumes of IS400(80) solution, and dispersed using ULTRA-TURRAX Tube Drive for 1 min at 3000 rpm within the 30 min thrice. After dispersing and centrifuging for 2 min at 14,000 rpm, 0.5 μl of each supernatant was injected into the LC-MS/MS system.
The concentration of MI-883 in plasma and tissues was determined using a high-performance liquid chromatography/tandem mass spectrometry (HPLC-MS/MS) method. […]

[1] = male, C57BL/6N, mouse, po, Liver, 10 mg/kg
[2] = male, C57BL/6N, mouse, po, Plasma, 10 mg/kg

NC(=O)c1cc(Cn2cc(-c3c(-c4ccc(Cl)cc4)nc4cc(F)ccn34)nn2)ccc1Cl [MI-883, 2-chloro-5-((4-(2-(4-chlorophenyl)-7-fluoroimidazo[1,2-a]pyridin-3-yl)-1H-1,2,3-triazol-1-yl)methyl)benzamide]
Tmax [1]: 30 min | half-life [1]: 211 min | Cmax [2]: 9290 ng/mL | Tmax [2]: 30 min | half-life [2]: 170 min | Tmax (male, mouse, ip, Plasma, 10 mg/kg, C57BL/6N mice): 30 min | PK of MI-883: MI-883 p.o. adipose tis. (p.o., time 10): 211 | PK of MI-883: MI-883 p.o. adipose tis. (p.o., time 120): 5811 | PK of MI-883: MI-883 p.o. adipose tis. (p.o., time 240): 980 | PK of MI-883: MI-883 p.o. adipose tis. (p.o., time 480): 1023 | PK of MI-883: MI-883 p.o. adipose tis. (p.o., time 720): 1016 | PK of MI-883: MI-883 p.o. adipose tis. (p.o., time 1440): 8 | PK of MI-883: MI-883 p.o. bile (p.o., time 10): 560 | PK of MI-883: MI-883 p.o. bile (p.o., time 120): 5663 | PK of MI-883: MI-883 p.o. bile (p.o., time 240): 9638 | PK of MI-883: MI-883 p.o. bile (p.o., time 480): 9739 | PK of MI-883: MI-883 p.o. bile (p.o., time 720): 23456 | PK of MI-883: MI-883 p.o. bile (p.o., time 1440): 192 | PK of MI-883: MI-883 p.o. brain (p.o., time 10): 8 | PK of MI-883: MI-883 p.o. brain (p.o., time 120): 300 | PK of MI-883: MI-883 p.o. brain (p.o., time 240): 45 | PK of MI-883: MI-883 p.o. brain (p.o., time 720): 55 | PK of MI-883: MI-883 p.o. colon (p.o., time 10): 2929 | PK of MI-883: MI-883 p.o. colon (p.o., time 120): 4345 | PK of MI-883: MI-883 p.o. colon (p.o., time 240): 1191 | PK of MI-883: MI-883 p.o. colon (p.o., time 480): 1428 | PK of MI-883: MI-883 p.o. colon (p.o., time 720): 1386 | PK of MI-883: MI-883 p.o. colon (p.o., time 1440): 15 | PK of MI-883: MI-883 p.o. feces (p.o., feces, time 1440): 174 ng | PK of MI-883: MI-883 p.o. kidney (p.o., time 10): 573 | PK of MI-883: MI-883 p.o. kidney (p.o., time 120): 9000 | PK of MI-883: MI-883 p.o. kidney (p.o., time 240): 2409 | PK of MI-883: MI-883 p.o. kidney (p.o., time 480): 2347 | PK of MI-883: MI-883 p.o. kidney (p.o., time 720): 2408 | PK of MI-883: MI-883 p.o. kidney (p.o., time 1440): 40 | PK of MI-883: MI-883 p.o. liver (p.o., time 10): 1972 | PK of MI-883: MI-883 p.o. liver (p.o., time 120): 14919 | PK of MI-883: MI-883 p.o. liver (p.o., time 240): 5297 | PK of MI-883: MI-883 p.o. liver (p.o., time 480): 5137 | PK of MI-883: MI-883 p.o. liver (p.o., time 720): 5549 | PK of MI-883: MI-883 p.o. liver (p.o., time 1440): 102 | PK of MI-883: MI-883 p.o. muscule (p.o., time 10): 98 | PK of MI-883: MI-883 p.o. muscule (p.o., time 120): 2725 | PK of MI-883: MI-883 p.o. muscule (p.o., time 240): 421 | PK of MI-883: MI-883 p.o. muscule (p.o., time 480): 488 | PK of MI-883: MI-883 p.o. muscule (p.o., time 720): 543 | PK of MI-883: MI-883 p.o. small int. (p.o., time 10): 5277 | PK of MI-883: MI-883 p.o. small int. (p.o., time 120): 9143 | PK of MI-883: MI-883 p.o. small int. (p.o., time 240): 2579 | PK of MI-883: MI-883 p.o. small int. (p.o., time 480): 1398 | PK of MI-883: MI-883 p.o. small int. (p.o., time 720): 2156 | PK of MI-883: MI-883 p.o. small int. (p.o., time 1440): 21 | PK of MI-883: MI-883 p.o. (p.o., time 10): 440 | PK of MI-883: MI-883 p.o. (p.o., time 120): 9288 | PK of MI-883: MI-883 p.o. (p.o., time 240): 1645 | PK of MI-883: MI-883 p.o. (p.o., time 480): 1502 | PK of MI-883: MI-883 p.o. (p.o., time 720): 1788 | PK of MI-883: MI-883 p.o. (p.o., time 1440): 15 | time with liver concentration above 1000 ng/g (single dose of 10 mg/kg): more than 18 hours | concentration in the liver lysate (single dose of 10 mg/kg p.o., male C57BL/6N mice): greater than 1000 ng/g
